Measured values from the supplement of paper PMC10307832.

Key:
Assay in all cases: relative viability (nuclei count vs DMSO), 5 days (fraction); higher = more cells survive
[1] = compound: CCN1CCC(CC1)N2C=C(N=N2)CNC3=CC4=C(C(=CN=C4C(=C3)Cl)C#N)NC5=CC(=C(C=C5)F)Cl [KIN001-266] + CC(C)C[C@H](NC(=O)[C@H](Cc1ccccc1)NC(=O)c1cnccn1)B(O)O [Bortezomib] (partner 0.002 µM)
Outline: (§1)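 For relative viability, nuclei counts in treated wells were divided by those in vehicle wells. Lung cancer cell lines had been pin-tool dosed in 1536-well plates the day after seeding and cultured for 5 days, then fixed and stained in one step (final 0.05% Triton X-100, 1% formaldehyde, 1 ug/ml Hoechst) and imaged at 4×. Doses were one drug alone or a fixed anchor-drug dose plus five library-drug doses (not always all listed) in √10 steps, and values are duplicate-plate medians.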

[2] = compound: CCN1CCC(CC1)N2C=C(N=N2)CNC3=CC4=C(C(=CN=C4C(=C3)Cl)C#N)NC5=CC(=C(C=C5)F)Cl [KIN001-266] + CCNC(=O)c1noc(-c2cc(C(C)C)c(O)cc2O)c1-c1ccc(CN2CCOCC2)cc1 [Luminespib] (partner 0.01 µM)
Outline: as §1

[3] = compound: CCN1CCC(CC1)N2C=C(N=N2)CNC3=CC4=C(C(=CN=C4C(=C3)Cl)C#N)NC5=CC(=C(C=C5)F)Cl [KIN001-266] + CC(=O)c1c(C)c2cnc(Nc3ccc(N4CCNCC4)cn3)nc2n(C2CCCC2)c1=O [Palbociclib] (partner 0.5 µM)
Outline: as §1

[4] = compound: CCN1CCC(CC1)N2C=C(N=N2)CNC3=CC4=C(C(=CN=C4C(=C3)Cl)C#N)NC5=CC(=C(C=C5)F)Cl [KIN001-266] + Cc1nc(Nc2ncc(C(=O)Nc3c(C)cccc3Cl)s2)cc(N2CCN(CCO)CC2)n1 [Dasatinib] (partner 0.075 µM)
Outline: as §1

Row | Cell Line | relative viability ([1]; first compound 0.08 µM) | relative viability ([1]; first compound 0.253 µM) | relative viability ([1]; first compound 2.53 µM) | relative viability ([1]; first compound 8 µM) | relative viability ([2]; first compound 0.08 µM) | relative viability ([2]; first compound 0.253 µM) | relative viability ([2]; first compound 0.8 µM) | relative viability ([2]; first compound 2.53 µM) | relative viability ([2]; first compound 8 µM) | relative viability ([3]; first compound 0.08 µM) | relative viability ([3]; first compound 0.253 µM) | relative viability ([3]; first compound 0.8 µM) | relative viability ([3]; first compound 2.53 µM) | relative viability ([3]; first compound 8 µM) | relative viability ([4]; first compound 0.08 µM) | relative viability ([4]; first compound 0.253 µM) | relative viability ([4]; first compound 2.53 µM) | relative viability ([4]; first compound 8 µM) | relative viability ([1]; first compound 0.8 µM) | relative viability ([4]; first compound 0.8 µM)
1 | HCC-827 | 1.09 | 1.03 | 1.07 | 1.09 | 0.659 | 0.38 | 0.509 | 0.841 | 0.362 | 0.443 | 0.492 | 0.374 | 0.471 | 0.467 | 0.349 | 0.317 | 0.275 | 0.229 | – | –
2 | HCC-78 | 0.57 | 0.261 | 0.495 | 0.616 | – | – | – | – | – | 0.506 | 0.518 | 0.476 | 0.431 | 0.415 | 0.566 | 0.421 | 0.361 | 0.38 | 0.464 | –
3 | NCI-H2085 | 1.01 | 1.04 | 1.14 | 0.916 | 0.412 | 0.437 | 0.404 | 0.434 | 0.429 | 0.478 | 0.494 | 0.504 | 0.461 | 0.38 | 0.221 | 0.234 | 0.239 | 0.244 | 0.888 | 0.241
4 | PC-14 | 0.881 | 0.816 | 0.759 | 0.297 | 0.167 | 0.117 | 0.171 | 0.225 | 0.152 | 0.55 | 0.518 | 0.594 | 0.509 | 0.0895 | 0.297 | 0.277 | 0.203 | 0.0481 | 0.892 | –
5 | NCI-H2342 | – | – | – | – | 0.745 | 0.716 | 0.689 | 0.721 | 0.865 | 0.52 | 0.518 | 0.471 | 0.597 | 0.575 | 0.298 | 0.303 | 0.264 | 0.31 | – | 0.258
6 | A-427 | 1.06 | 1 | 0.982 | 0.817 | 0.874 | 0.843 | 0.979 | 0.913 | 0.969 | 0.511 | 0.524 | 0.5 | 0.493 | 0.526 | 0.742 | 0.614 | 0.686 | 0.575 | 0.955 | 0.661
7 | H3255 | 0.899 | 0.775 | 0.788 | 0.699 | 0.909 | 0.945 | 0.935 | 0.847 | 0.912 | 0.336 | 0.3 | 0.307 | 0.311 | 0.282 | 0.359 | 0.334 | 0.404 | 0.346 | 0.838 | 0.288
8 | HCC-44 | 0.944 | 0.867 | 0.852 | 0.864 | 1.02 | 1.04 | 1.1 | 1.01 | 1.19 | 1.06 | 0.973 | 0.95 | 0.949 | 1.03 | – | – | – | – | 0.815 | –
9 | NCI-H1734 | 1.07 | 0.842 | 0.805 | 0.768 | 0.196 | 0.195 | 0.191 | 0.19 | 0.193 | 0.342 | 0.539 | 0.345 | 0.321 | 0.294 | 0.474 | 0.466 | 0.419 | 0.401 | 0.822 | 0.43
10 | NCI-H2228 | 1.03 | 0.935 | 1.33 | 0.796 | 0.136 | 0.13 | 0.145 | 0.172 | 0.112 | 0.836 | 0.797 | 0.936 | 0.763 | 0.664 | 0.544 | 0.538 | 0.434 | 0.451 | 1.09 | 0.511
11 | NCI-H358 | – | – | – | – | 0.496 | 0.251 | 0.237 | 0.306 | 0.123 | 0.138 | 0.126 | 0.137 | 0.133 | 0.171 | 0.148 | 0.171 | 0.137 | 0.116 | – | 0.173
12 | EBC-1 | 0.566 | 0.502 | 0.446 | 0.364 | – | – | – | – | – | – | – | – | – | – | – | – | – | – | 0.477 | –
13 | NCI-H596 | 0.919 | 1.17 | 1.04 | 0.947 | 0.922 | 1.03 | 1.08 | 1.03 | 0.905 | – | – | – | – | – | 0.607 | 0.586 | 0.583 | 0.63 | 1.05 | 0.539
14 | SK-MES-1 | – | – | – | – | 0.783 | 0.779 | 1.06 | 0.739 | 0.427 | 0.331 | 0.352 | 0.28 | 0.336 | 0.316 | 0.418 | 0.356 | 0.337 | 0.247 | – | 0.357
15 | SW 900 | – | – | – | – | 0.143 | 0.177 | 0.154 | 0.173 | 0.167 | 0.558 | 0.498 | 0.611 | 0.555 | 0.268 | 0.753 | 0.491 | 0.764 | 0.507 | – | 0.544
16 | NCI-H1703 | 0.378 | 0.317 | 0.273 | 0.291 | – | – | – | – | – | – | – | – | – | – | – | – | – | – | 0.296 | –
17 | NCI-H1944 | – | – | – | – | 0.73 | 0.771 | 0.708 | 0.744 | 0.68 | 0.338 | 0.355 | 0.319 | 0.361 | 0.351 | 0.244 | 0.215 | 0.214 | 0.209 | – | 0.187
18 | NCI-H1563 | 0.951 | 0.982 | 0.855 | 0.809 | 0.496 | 0.498 | 0.534 | 0.602 | 0.524 | – | – | – | – | – | 0.468 | 0.524 | 0.458 | 0.553 | 0.846 | 0.447
19 | NCI-H1395 | – | – | – | – | 0.829 | 0.76 | 0.619 | 0.545 | 0.659 | 0.671 | 0.614 | 0.648 | 0.602 | 0.616 | 0.413 | 0.388 | 0.418 | 0.429 | – | 0.43
20 | NCI-H2170 | – | – | – | – | 0.704 | 0.801 | 0.675 | 0.739 | 0.568 | 0.375 | 0.433 | 0.365 | 0.407 | 0.373 | 0.422 | 0.505 | 0.594 | 0.576 | – | 0.571
